Source: PMC6199744, “Development of Chemical Proteomics for the Folateome and Analysis of the Kinetoplastid Folateome” (ACS Infectious Diseases, 2018)

System: L. major lysate proteins
Assay: Multitargeted bead mixture chemoproteomics, single concentration competition, proteome-wide
Type: binding
Conditions: for fold change: vehicle control = 1

Nc1nc2[nH]cc(CCc3ccc(C(=O)N[C@@H](CCC(=O)O)C(=O)O)cc3)c2c(=O)[nH]1 [PTX, pemetrexed]
fold change vs vehicle control (protein LMJF.28.0110 […] 3 SUBUNIT, PUTATIVE): 0.95 | fold change vs vehicle control (protein LMJF.28.0490 PROPIONYL-COA C[…] CHAIN, PUTATIVE): 1.09 | fold change (protein LMJF.28.0710 HY[…], CONSERVED (SNARE associated Golgi protein, putative)): 0.8 | fold change vs vehicle control (protein LMJF.28.0930 HY[…], CONSERVED): 0.96 | fold change vs vehicle control (protein LMJF.28.0960 40S RIBOSOMAL PROTEIN S14): 1.01 | fold change vs vehicle control (protein LMJF.28.1530 ATP DEPENDENT DEAD-BOX HELICASE, PUTATIVE): 0.81 | fold change relative to vehicle control (protein LMJF.28.1730, […]-ATP-ASE SUBUNIT 2, PUTATIVE): 1.01 | fold change vs vehicle control (protein LMJF.28.2430 VACUOLAR ATP SYNTHASE SUBUNIT B, PUTATIVE): 0.95 | fold change relative to vehicle control (protein LMJF.28.2770, HEAT-SHOCK PROTEIN HSP70, PUTATIVE): 1.13 | fold change (protein LMJF.28.2910 GLUTAMATE DEHYDROGENASE, PUTATIVE): 0.86 | fold change vs vehicle control (protein LMJF.29.0120 […]-ATPASE SUBUNIT, PUTATIVE): 0.92 | fold change (protein LMJF.29.0620 ATP-BINDING CASSETTE PROTEIN SUBFAMILY A, MEMBER 10, PUTATIVE): 0.73 | fold change relative to vehicle control (protein LMJF.29.0850, HIGH MOBILITY GROUP PROTEIN HOMOLOG TDP-1, PUTATIVE): 1.14 | fold change vs vehicle control (protein LMJF.29.0940 HY[…], CONSERVED): 1 | fold change vs vehicle control (protein LMJF.29.1160 TRYPAREDOXIN): 0.85 | fold change vs vehicle control (protein LMJF.29.1240 HY[…], UNKNOWN FUNCTION): 0.95 | fold change vs vehicle control (protein LMJF.29.1270 100 kDa heat shock protein (Hsp100)): 0.95 | fold change vs vehicle control (protein LMJF.29.1310 CARNITINE/CHOLINE ACETYLTRANSFERASE, PUTATIVE): 0.97 | fold change relative to vehicle control (protein LMJF.29.1760, PAR[…] PROTEIN 1D, PUTATIVE): 1.4 | fold change vs vehicle control (protein LMJF.29.1780 D[…] PROTEIN, PUTATIVE): 0.9 | fold change (protein LMJF.29.2200 GTP-BINDING PROTEIN, PUTATIVE (dynamin-1-like protein)): 0.98 | fold change (protein LMJF.29.2310 ENOYL-COA HYDRATASE/ISOMERASE-LIKE PROTEIN): 0.93 | fold change vs vehicle control (protein LMJF.29.2360 ASPARTYL AMINOPEPTIDASE, PUTATIVE,METALLO-PEPTIDASE, CLAN MH, FAMILY M20): 0.84 | fold change (protein LMJF.29.2860 40S RIBOSOMAL PROTEIN S19-LIKE PROTEIN): 1.11 | fold change (protein LMJF.30.0580 HY[…], CONSERVED (AMP-binding enzyme, putative)): 0.77 | fold change (protein LMJF.30.0850 SURFACE PROTEIN AMASTIN, PUTATIVE): 0.89 | fold change vs vehicle control (protein LMJF.30.1250 PYRIDOXAL KINASE, PUTATIVE): 1.01 | fold change relative to vehicle control (protein LMJF.30.3090, HY[…], CONSERVED (RNA-binding protein 42, putative)): 1.14 | fold change vs vehicle control (protein LMJF.30.3240 GLUTAMYL-TRNA SYNTHETASE, PUTATIVE): 1.09 | fold change (protein LMJF.30.3430 HY[…], CONSERVED (protein mkt1, putative)): 0.97 | fold change (protein LMJF.30.3520 S-ADENOSYL[…]): 0.85 | fold change (protein LMJF.30.3570 ZINC FINGER-DOMAIN PROTEIN, PUTATIVE): 0.7 | fold change relative to vehicle control (protein LMJF.31.0080, HY[…], CONSERVED): 1.19 | fold change vs vehicle control (protein LMJF.31.0340 AMINO ACID PERMEASE, PUTATIVE): 0.93 | fold change (protein LMJF.31.1130 N-ACYL-L-AMINO ACID AMIDOHYDROLASE, PUTATIVE): 0.96 | fold change vs vehicle control (protein LMJF.31.1640 THIOLASE PROTEIN-LIKE PROTEIN): 0.95 | fold change relative to vehicle control (protein LMJF.31.2150, PROSTAGLANDIN F2-ALPHA SYNTHASE/D-ARABINOSE DEHYDROGENASE): 0.94 | fold change vs vehicle control (protein LMJF.31.2250 3,2-TRANS-ENOYL-COA ISOMERASE, MIT[…], PUTATIVE): 0.92 | fold change vs vehicle control (protein LMJF.32.0750 RNA BINDING PROTEIN, PUTATIVE): 1.04 | fold change vs vehicle control (protein LMJF.32.1060 DYNEIN, PUTATIVE): 0.94 | fold change relative to vehicle control (protein LMJF.32.1820, IRON SUPEROXIDE DISMUTASE, PUTATIVE): 1.02 | fold change relative to vehicle control (protein LMJF.32.2320, C-14 STEROL REDUCTASE, PUTATIVE): 1.11 | fold change vs vehicle control (protein LMJF.32.3870 MYOSIN XXI): 0.93 | fold change relative to vehicle control (protein LMJF.33.0240, THIOL-DEPENDENT REDUCTASE 1): 1.12 | fold change (protein LMJF.33.0280 HY[…], CONSERVED): 1.02 | fold change relative to vehicle control (protein LMJF.33.0890, HY[…], CONSERVED): 0.88 | fold change vs vehicle control (protein LMJF.33.1070 HY[…], UNKNOWN FUNCTION): 1.02 | fold change vs vehicle control (protein LMJF.33.1330 CYSTEINE CONJUGATE BETA-LYASE, AMINOTRANSFERASE- LIKE PROTEIN): 0.74 | fold change (protein LMJF.33.1590 HY[…], CONSERVED (3-ketoacyl-CoA reductase, putative)): 1.36 | fold change relative to vehicle control (protein LMJF.33.1860, ATP-BINDING CASSETTE PROTEIN SUBFAMILY D, MEMBER 3, PUTATIVE): 1.27 | fold change relative to vehicle control (protein LMJF.33.2340, SUCCINYL-COA:3-KETOACID-COENZYME A TRANSFERASE, MIT[…], PUTATIVE): 1.06 | fold change relative to vehicle control (protein LMJF.33.2440, HY[…], CONSERVED): 1.15 | fold change relative to vehicle control (protein LMJF.33.2540, CARBOXYPEPTIDASE, PUTATIVE,METALLO-PEPTIDASE, CLAN MA(E), FAMILY M32): 1.24 | fold change (protein LMJF.33.3150 40S RIBOSOMAL PROTEIN S13, PUTATIVE): 1.05 | fold change relative to vehicle control (protein LMJF.34.0140, MALATE DEHYDROGENASE): 1.48 | fold change vs vehicle control (protein LMJF.34.0440 RIBOSOMAL PROTEIN S25): 1.12 | fold change relative to vehicle control (protein LMJF.34.2580, HY[…], CONSERVED (ALBA-domain protein 3)): 1.03 | fold change relative to vehicle control (protein LMJF.34.3250, PUTATIVE PYRUVATE/INDOLE-PYRUVATE CARBOXYLASE, PUTATIVE): 1.01 | fold change (protein LMJF.34.4370 20S […] 7 SUBUNIT, (PUTATIVE)): 0.96 | fold change vs vehicle control (protein LMJF.34.4620 HY[…], CONSERVED): 0.95 | fold change (protein LMJF.35.0070 PROHIBITIN, PUTATIVE): 0.97 | fold change vs vehicle control (protein LMJF.35.0360 ENOYL-COA HYDRATASE/ISOMERASE FAMILY PROTEIN, CONSERVED): 1.16 | fold change (protein LMJF.35.0370 ATP-DEPENDENT DEAD-BOX RNA HELICASE, PUTATIVE): 0.95 | fold change (protein LMJF.35.0420 40S RIBOSOMAL PROTEIN S3A, PUTATIVE): 1.12 | fold change relative to vehicle control (protein LMJF.35.1220, SHORT CHAIN DEHYDROGENASE, PUTATIVE): 1.02
